# According to ChEMBL document CHEMBL4152379, “Discovery of Pyrrolidine Sulfonamides as Selective and Orally Bioavailable Antagonists of Transient Receptor Potential Vanilloid-4 (TRPV4)” (J Med Chem, 2018):
# Tests used:
# [1] = molecular target: T1, Short transient receptor potential channel 5 (Homo sapiens, UniProt Q9UL62); assay: Inhibition of TRPC5 (unknown origin)
# T1 sequence (Q9UL62 whole entry): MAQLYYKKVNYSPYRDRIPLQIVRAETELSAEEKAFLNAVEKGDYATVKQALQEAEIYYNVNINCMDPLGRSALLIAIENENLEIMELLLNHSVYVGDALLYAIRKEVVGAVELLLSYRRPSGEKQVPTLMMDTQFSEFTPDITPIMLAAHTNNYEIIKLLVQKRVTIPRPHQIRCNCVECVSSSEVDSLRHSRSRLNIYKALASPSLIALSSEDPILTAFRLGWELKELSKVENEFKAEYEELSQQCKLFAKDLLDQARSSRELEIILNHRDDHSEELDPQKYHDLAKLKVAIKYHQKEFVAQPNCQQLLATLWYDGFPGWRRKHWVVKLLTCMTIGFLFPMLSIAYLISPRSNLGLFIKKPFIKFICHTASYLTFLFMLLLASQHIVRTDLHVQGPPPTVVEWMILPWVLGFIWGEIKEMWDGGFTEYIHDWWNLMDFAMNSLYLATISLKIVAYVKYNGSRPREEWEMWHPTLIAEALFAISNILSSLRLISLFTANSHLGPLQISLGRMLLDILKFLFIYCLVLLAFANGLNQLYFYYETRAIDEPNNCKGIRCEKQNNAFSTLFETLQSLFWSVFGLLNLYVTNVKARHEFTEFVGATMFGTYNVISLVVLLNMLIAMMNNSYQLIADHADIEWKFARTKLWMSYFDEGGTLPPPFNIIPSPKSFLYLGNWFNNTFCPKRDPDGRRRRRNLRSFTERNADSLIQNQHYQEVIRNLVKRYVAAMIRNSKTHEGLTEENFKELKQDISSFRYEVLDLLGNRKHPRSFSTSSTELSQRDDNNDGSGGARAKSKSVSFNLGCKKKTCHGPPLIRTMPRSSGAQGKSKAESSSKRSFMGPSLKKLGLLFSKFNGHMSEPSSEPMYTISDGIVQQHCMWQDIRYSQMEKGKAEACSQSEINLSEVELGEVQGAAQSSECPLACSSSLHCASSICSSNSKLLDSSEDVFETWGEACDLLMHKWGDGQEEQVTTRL
# [2] = molecular target: Transient receptor potential cation channel subfamily M member 8 (Homo sapiens, UniProt Q7Z2W7); assay: Inhibition of TRPM8 (unknown origin)
# [3] = Lipophilicity, log D of the compound by chromatography; type: physicochemical
# [4] = Fraction unbound in Sprague-Dawley rat plasma; type: ADME, cell-free
# [5] = molecular target: Transient receptor potential cation channel subfamily V member 1 (Homo sapiens, UniProt Q8NER1); assay: Inhibition of TRPV1 (unknown origin)
# [6] = molecular target: T2, Short transient receptor potential channel 3 (Homo sapiens, UniProt Q13507); assay: Inhibition of TRPC3 (unknown origin)
# T2 sequence (Q13507 whole entry): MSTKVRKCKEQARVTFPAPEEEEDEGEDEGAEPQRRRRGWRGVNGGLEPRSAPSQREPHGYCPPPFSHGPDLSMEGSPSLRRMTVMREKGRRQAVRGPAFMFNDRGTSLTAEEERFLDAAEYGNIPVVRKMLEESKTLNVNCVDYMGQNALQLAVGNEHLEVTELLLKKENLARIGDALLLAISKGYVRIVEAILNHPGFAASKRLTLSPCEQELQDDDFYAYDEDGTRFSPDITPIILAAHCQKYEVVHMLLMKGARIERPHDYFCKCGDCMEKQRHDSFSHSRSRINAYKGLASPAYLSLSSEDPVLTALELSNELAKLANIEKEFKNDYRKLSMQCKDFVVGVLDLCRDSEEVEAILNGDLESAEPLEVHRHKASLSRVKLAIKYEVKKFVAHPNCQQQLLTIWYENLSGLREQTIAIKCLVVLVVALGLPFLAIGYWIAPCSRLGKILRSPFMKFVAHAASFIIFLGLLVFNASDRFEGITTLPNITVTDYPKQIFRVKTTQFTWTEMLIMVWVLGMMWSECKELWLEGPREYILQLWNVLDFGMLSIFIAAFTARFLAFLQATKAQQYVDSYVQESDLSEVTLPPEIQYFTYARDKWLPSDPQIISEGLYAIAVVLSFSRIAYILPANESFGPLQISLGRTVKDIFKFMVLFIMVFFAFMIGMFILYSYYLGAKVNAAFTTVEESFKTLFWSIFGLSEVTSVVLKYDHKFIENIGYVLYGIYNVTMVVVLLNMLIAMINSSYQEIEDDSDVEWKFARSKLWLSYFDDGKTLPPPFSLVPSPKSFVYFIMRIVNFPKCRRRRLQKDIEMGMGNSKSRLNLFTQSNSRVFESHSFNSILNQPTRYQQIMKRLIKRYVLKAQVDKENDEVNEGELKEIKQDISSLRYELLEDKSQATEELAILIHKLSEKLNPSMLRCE
# [7] = Aqueous solubility of the compound; type: physicochemical; settings: buffer
# Transient receptor potential cation channel subfamily M member 8, sequence (Q7Z2W7 whole entry): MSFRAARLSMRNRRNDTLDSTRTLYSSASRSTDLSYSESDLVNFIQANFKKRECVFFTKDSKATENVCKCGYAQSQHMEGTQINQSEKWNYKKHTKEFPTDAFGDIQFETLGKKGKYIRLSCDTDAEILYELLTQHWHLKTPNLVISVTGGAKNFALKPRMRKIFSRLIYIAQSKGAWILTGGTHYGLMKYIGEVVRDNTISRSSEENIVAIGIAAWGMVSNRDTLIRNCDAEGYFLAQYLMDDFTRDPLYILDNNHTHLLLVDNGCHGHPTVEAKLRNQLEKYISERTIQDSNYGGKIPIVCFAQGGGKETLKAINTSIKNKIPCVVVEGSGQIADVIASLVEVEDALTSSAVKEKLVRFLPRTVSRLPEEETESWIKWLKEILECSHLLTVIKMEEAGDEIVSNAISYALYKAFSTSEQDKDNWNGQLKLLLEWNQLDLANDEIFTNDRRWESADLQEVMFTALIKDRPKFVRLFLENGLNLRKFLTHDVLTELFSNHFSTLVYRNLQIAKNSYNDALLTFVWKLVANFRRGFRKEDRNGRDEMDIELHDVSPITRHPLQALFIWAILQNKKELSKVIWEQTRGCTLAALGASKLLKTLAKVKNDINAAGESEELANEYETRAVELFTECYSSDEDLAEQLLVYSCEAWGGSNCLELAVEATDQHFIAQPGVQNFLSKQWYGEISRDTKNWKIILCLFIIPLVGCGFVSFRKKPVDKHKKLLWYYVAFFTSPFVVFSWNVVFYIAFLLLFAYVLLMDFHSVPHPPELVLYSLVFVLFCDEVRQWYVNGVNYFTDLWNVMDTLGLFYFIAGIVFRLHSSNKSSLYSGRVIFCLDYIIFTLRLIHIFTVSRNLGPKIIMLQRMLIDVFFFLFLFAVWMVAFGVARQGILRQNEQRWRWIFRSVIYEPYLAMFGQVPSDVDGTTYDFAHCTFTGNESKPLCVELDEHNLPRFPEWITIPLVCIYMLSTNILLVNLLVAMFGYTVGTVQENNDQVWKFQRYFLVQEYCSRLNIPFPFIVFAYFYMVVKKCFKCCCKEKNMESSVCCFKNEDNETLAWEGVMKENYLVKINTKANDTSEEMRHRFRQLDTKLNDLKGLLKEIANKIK
# Transient receptor potential cation channel subfamily V member 1, sequence (Q8NER1 whole entry): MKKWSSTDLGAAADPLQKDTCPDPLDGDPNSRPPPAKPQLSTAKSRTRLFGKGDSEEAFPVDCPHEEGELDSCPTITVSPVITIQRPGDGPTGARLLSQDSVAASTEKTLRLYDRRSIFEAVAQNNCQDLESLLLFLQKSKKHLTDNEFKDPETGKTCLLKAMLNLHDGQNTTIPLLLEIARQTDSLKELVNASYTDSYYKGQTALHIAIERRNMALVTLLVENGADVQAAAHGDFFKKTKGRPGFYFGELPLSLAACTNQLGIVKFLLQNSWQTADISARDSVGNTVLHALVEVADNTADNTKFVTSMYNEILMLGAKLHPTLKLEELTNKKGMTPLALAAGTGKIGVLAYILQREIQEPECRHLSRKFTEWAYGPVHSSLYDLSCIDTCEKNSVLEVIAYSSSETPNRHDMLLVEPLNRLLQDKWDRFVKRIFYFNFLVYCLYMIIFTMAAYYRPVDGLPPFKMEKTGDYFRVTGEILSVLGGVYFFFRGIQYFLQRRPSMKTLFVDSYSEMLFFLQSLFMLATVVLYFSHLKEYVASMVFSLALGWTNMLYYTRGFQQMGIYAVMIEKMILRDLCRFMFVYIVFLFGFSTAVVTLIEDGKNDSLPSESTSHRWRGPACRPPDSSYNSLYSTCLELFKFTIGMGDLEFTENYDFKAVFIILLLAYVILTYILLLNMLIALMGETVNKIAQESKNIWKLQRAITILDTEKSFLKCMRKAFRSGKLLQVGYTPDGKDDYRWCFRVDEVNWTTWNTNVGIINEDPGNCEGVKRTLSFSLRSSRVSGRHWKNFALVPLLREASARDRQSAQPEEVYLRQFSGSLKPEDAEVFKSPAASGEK
smiles,measurement,setting,value
N#Cc1ccc(O[C@H]2CN(S(=O)(=O)c3ccc(Cl)cc3Cl)C[C@@]2(O)CO)cc1F,IC50,[1],> 10 µM
same,IC50,[2],> 10 µM
same,chromatographic logD,[3],4.6
same,fraction unbound,[4],0.059
same,IC50,[5],> 10 µM
same,IC50,[6],> 10 µM
same,solubility,[7],360 µM
